Results reported in ChEMBL document CHEMBL5226387, “A Drimane Meroterpenoid Borate as a Synchronous Ca+ Oscillation Inhibitor from the Coral-Associated Fungus Alternaria sp. ZH-15” (J Nat Prod, 2023).

Columns and labels:
Format in all cases: functional, cell-based
[1] = Neuroprotective activity in C57BL/6J mouse primary neocortical neurons assessed as inhibition of spontaneous Ca2+ oscillation frequency measured for 15 mins by Fluo-4 dye based fluorescence analysis; settings: Primary neocortical neuron, 0.25 h
[2] = Neuroprotective activity in C57BL/6J mouse primary neocortical neurons assessed as inhibition of spontaneous Ca2+ oscillation amplitude measured for 15 mins by Fluo-4 dye based fluorescence analysis; settings: Primary neocortical neuron, 0.25 h
[3] = Neuroprotective activity in C57BL/6J mouse primary neocortical neurons assessed as inhibition of 4-AP-induced spontaneous Ca2+ oscillation amplitude treated with compound 15 mins prior to 4-AP challenge and measured after 10 mins by Fluo-4 dye based fluorescence analysis; settings: Primary neocortical neuron
[4] = Neuroprotective activity in C57BL/6J mouse primary neocortical neurons assessed as inhibition of 4-AP-induced spontaneous Ca2+ oscillation frequency treated with compound 15 mins prior to 4-AP challenge and measured after 10 mins by Fluo-4 dye based fluorescence analysis; settings: Primary neocortical neuron

## COc1cc(-c2cc3c(c(=O)o2)C[C@@]24OB(O)O[C@]5(CC[C@@]2(C)O3)C(C)(C)C=CC(=O)[C@]45C)cc(OC)c1OC
[1]
  IC50: 15 µM
[2]
  IC50: 16 µM
[3]
  IC50: 34 µM
[4]
  IC50: 12 µM

## COc1cc(-c2cc3c(c(=O)o2)C[C@]2(O)[C@@]4(C)C(=O)C=CC(C)(C)[C@]4(O)CC[C@@]2(C)O3)cc(OC)c1OC [TERRITREM B]
[1]
  IC50: 8.6 µM
[2]
  IC50: 5.4 µM
[3]
  IC50: 27 µM
[4]
  IC50: 14 µM
